Measured values from US7962290B1, “Identification of pharmacophores from co-crystals of spleen tyrosine kinase (SYK) and SYK ligands” (Rigel Pharmaceuticals, Inc., priority 2006, dated 2011).

Test: Precipitation of ligand in crystal soaking solution
Type: physicochemical
Method: The pooled fractions were dialyzed against 300 mM NaCl, 10 mM Hepes pH 7.5, 5 mM DTT overnight at 4° C. then concentrated to 10.9 mg/mL in a Vivaspin centrifugal concentrator (MWCO=10 kDa). Crystals were obtained at 20° C. in sitting drop plates using 1 μl of protein and 1 μl of crystallant (20% PEG 3000, 100 mM Citrate pH 5.5) equilibrated against 200 μl of crystallant in the reservoir. Plate-shaped crystals were observed after approximately 24 hours. A single crystal was transferred from the crystallization drop to a plate containing crystallant and 11.5 mM Cpd. No. 1. The crystal was soaked for 22.5 hours in this solution. […] The crystal was transferred to a cryoprotectant containing 20% PEG 3000, 100 mM Citrate pH 5:5, 15% glycerol then plunge frozen into liquid nitrogen for X-ray diffraction analysis.
The pooled fractions were dialyzed against 300 mM NaCl, 10 mM Hepes pH 7.5, 5 mM DTT, 10% glycerol overnight at 4° C. then concentrated to 10.0 mg/mL in a Vivaspin centrifugal concentrator (MWCO=10 kDa). Crystals were obtained at 20° C. in sitting drop plates using 1 μl of protein and 1 μl of crystallant (20% PEG 3000, 100 mM Citrate pH 5.5) equilibrated against 200 μl of crystallant in the reservoir. Plate-shaped crystals were observed after approximately 24 hours. […]

Row | precipitation at the end of the soak (crystallant (20% PEG 3000, 100 mM Citrate pH 5.5) with 11.5 mM compound, 22.5 hours) | concentration of the ligand in solution (soak solution 30% PEG 3000, 50 mM Citrate pH 5.5, 5% DMSO, 2.4 mM added, 23.5 hours, some precipitation observed) | SMILES
1 | Some precipitation | – | Oc1cccc(Nc2ncc(F)c(Nc3cccc(O)c3)n2)c1 [Cpd. No. 1]
2 | – | less than 2.4 mM | COc1cc(Nc2ncc(F)c(Nc3ccc4c(n3)NC(=O)C(C)(C)O4)n2)cc(OC)c1OC [Cpd. No. 3]
